Laboratory results from ChEMBL document CHEMBL1123834, “Isozyme-specific enzyme inhibitors. 14. 5'(R)-C-[(L-homocystein-S-yl)methyl]adenosine 5'-(beta,gamma-imidotriphosphate), a potent inhibitor of rat methionine adenosyltransferases” (J Med Chem, 1987).

What was measured:
Assay type in all cases: protein assay
[1] = target: T1, S-adenosylmethionine synthetase (MAT 1 and MAT 2) (Rattus norvegicus, UniProt P13444+P18298); assay: Inhibition constants of MT Forms of rat Novikoff Ascitic Hepatomae using Methionine as the variable substrate; Inhibition is non competitive inhibition
[2] = target: T1, S-adenosylmethionine synthetase (MAT 1 and MAT 2); assay: Inhibition constants of M-2 Forms of rat methionine adenosyltransferase using ATP as the variable substrate; Inhibition is competitive type
[3] = target: T1, S-adenosylmethionine synthetase (MAT 1 and MAT 2); assay: Inhibition constants of M-2 Forms of rat methionine adenosyltransferase using Methionine as the variable substrate; Inhibition is competitive type
[4] = target: T1, S-adenosylmethionine synthetase (MAT 1 and MAT 2); assay: Inhibition constants of MT Forms of rat Novikoff Ascitic Hepatomae using ATP as the variable substrate; Inhibition is competitive type
[5] = target: T1, S-adenosylmethionine synthetase (MAT 1 and MAT 2); assay: Inhibition constants of MT Forms of rat Novikoff Ascitic Hepatomae using Methionine as the variable substrate; Inhibition is non competitive type
[6] = target: T1, S-adenosylmethionine synthetase (MAT 1 and MAT 2); assay: Inhibition constants of M-2 Forms of rat methionine adenosyltransferase using Methionine as the variable substrate; Inhibition is non competitive type

NC(CCSC(CP(=O)(O)OP(=O)(O)NP(=O)(O)O)[C@H]1O[C@@H](n2cnc3c2NC=NC3N)[C@H](O)[C@@H]1O)C(=O)O (stereo partly drawn)
Ki [1]: 38 µM
Ki [2]: 16 µM
Ki [3]: 26 µM
Ki [4]: 11 µM

NC(CCS[C@@H](CNP(=O)(O)OP(=O)(O)OP(=O)(O)O)[C@H]1OC(n2cnc3c2NC=NC3N)[C@H](O)[C@@H]1O)C(=O)O (stereo partly drawn)
Ki [2]: 0.36 µM
Ki [5]: 2.3 µM
Ki [4]: 0.27 µM
Ki [6]: 3 µM
